Laboratory results as given in patent EP3436024B1, “3-BETA-METHOXY-PREG FOR USE IN THE TREATMENT OF TREATMENT RESISTANT DEPRESSION” (Mapreg, priority 2016, dated 2017).

Key:
Wistar Kyoto (WKY) rats [1] = test: Elevated-plus maze (EPM), WKY rats; assay type: in vivo, rat; details: acute, fluoxetine 10 mg/kg, Fig. 5D
Description: (§1) After a 6-day period of acclimatization, all experimental groups received daily successive subcutaneous (250 µl per rat) and intraperitoneal (1 ml/kg) injections. WI rats received injection of vehicle (sesame oil + saline) while WKY rats were randomly assigned to […], as follow: KWY rats receiving only vehicle (sesame oil + saline) and WKY rats treated with MAP4343 (10 mg/kg, s.c.; rats received in parallel i.p. injections of saline), fluoxetine (10 mg/kg i.p., rats received in parallel s.c. injections of sesame oil) or ketamine (30 mg/kg, i.p.; rats received in parallel s.c. injections of sesame oil) (see Figure 3).
(§2) After, a 6-day period of acclimatization, the acute phase of treatment started for 4 days during behavioral tests were performed (Figure 3). All animals were injected 1h30 before the starting of behavioral test.
We used the elevated-plus maze (EPM) as an assay of anxiety-related behavior in rodents (Walf and Frye, 2007). Rats were initially placed in the center of the plus-maze, consisting of two open arms (50 x 10 cm) and two closed arms (50 x 10 cm enclosed by 40 cm walls), in a 50 lux illuminated room and videotaped during 5 min using a computerized system (VideoTrack V2.5, ViewPoint, Lyon, France). The time spent in the open versus closed arms was blindly measured by two independent experimenters from the recorded video, and the open arm-index was calculated as follow: time in the open arms (sec) / [time in open arms (sec) + time in closed arms (sec)].

Wistar Kyoto (WKY) rats [2] = test: Anxious-like behavior: activity in the central square of the open-field arena, WKY rats; assay type: in vivo, rat; details: acute, MAP4343 10 mg/kg s.c., fluoxetine 10 mg/kg i.p., ketamine 30 mg/kg i.p.
Description: as §1, §2
(§3) The animals were individually placed in the open field arena (OFA) (70 x 100 x 70 cm), with a central square (35 x 50 cm), located in a 50 lux illuminated room and videotaped during 3 min using a computerized system (VideoTrack V2.5, ViewPoint, Lyon, France).
(§4) OFA allows firstly the evaluation of total locomotor activity (LMA) thereby measuring the total distance travelled in the arena (in cm). Secondly, measurements of the activity in the center of the arena like (i) the number of entries in the center of arena and (ii) the total time spent in the center of arena (in sec) provide cues of anxiety-like behavior (Prut and Belzung, 2003). All these behavioral parameters were instantaneously measured automatically with the VideoTrack V2.5 software from the videos.

Wistar Kyoto (WKY) rats [3] = test: Locomotor activity in the open-field arena, WKY rats; assay type: in vivo, rat; details: acute, fluoxetine 10 mg/kg i.p., ketamine 30 mg/kg i.p., 3 min, Fig. 5A
Description: as §1, §2, §3, §4

Wistar Kyoto (WKY) rats [4] = test: Forced swimming test (FST), WKY rats; assay type: in vivo, rat; details: acute administration (4 days), MAP4343 10 mg/kg, fluoxetine 10 mg/kg i.p., ketamine 30 mg/kg i.p., Fig. 6C
Description: 3B-methoxy-PREG (also referred to as "MAP4343" in Example 4) was dissolved in sesame oil by sonication using a Sonifer-450 (Branson Ultrasonics Corporation, Danbury, USA) during 1 cycle of 5 pulses in sesame oil. Fluoxetine (Biotrend, Köln, Germany) and Ketamine (Sigma-Aldrich, St-Quentin Fallvier, France) were dissolved in sterile saline solution (NaCl 0.9%). The drug formulations were prepared freshly each day of treatment. MAP4343 was administered subcutaneously (ranging of 1-15 mg/Kg/day) while fluoxetine and ketamine were injected intraperitonealy (10 mg/Kg/day and 30 mg/Kg/day, respectively).
After a 6-day period of acclimatization, all experimental groups received daily successive subcutaneous (250 µl per rat) and intraperitoneal (1 ml/kg) injections. […]
Rats were submitted to the forced swimming test (FST), according the procedure initially described by (Detke et al., 1995) and slightly modified by (Bianchi et al., 2002). […] The pre-test and test sessions were recorded using a video camera placed above the cylinder for subsequent behavioral analysis. The immobility time (in sec) was blindly measured by two independent experimenters from recorded videos. […]
The effects of a dose-ranging administration of MAP4343 were tested in WI and WKY rats on their immobility time measured in FST.

[5] = Body weight of treated WKY rats; assay type: in vivo; details: fluoxetine 10 mg/kg i.p., 4 days

## CNCCC(Oc1ccc(C(F)(F)F)cc1)c1ccccc1 (centres unmarked) [fluoxetine]
Wistar Kyoto (WKY) rats [1]; MAP4343 10 mg/kg s.c., ketamine 30 mg/kg i.p.
  open-arm (OA) index, change when compared to WKY receiving vehicle alone: -84%
Wistar Kyoto (WKY) rats [1]
  open-arm (OA) index, change when compared to MAP4343-treated WKY: -95%
Wistar Kyoto (WKY) rats [2]; Fig. 5B
  number of entries in the central square of OFA, change as compared to WKY receiving only vehicle: failed to significantly modify
Wistar Kyoto (WKY) rats [2]; Fig. 5C
  time spent in the center of open-field, change as compared to WKY receiving vehicle: did not induce any significant change
Wistar Kyoto (WKY) rats [3]; MAP4343 10 mg/kg s.c.
  locomotor activity (total distance travelled in the open-field arena), change as compared to WKY receiving vehicle: -45%
Wistar Kyoto (WKY) rats [3]
  locomotor activity (total distance travelled in the open-field arena), change as compared to MAP4343-treated WKY: -52%
Wistar Kyoto (WKY) rats [4]
  immobility time measured in FST, change when compared to WKY rats receiving vehicle alone: +29%
[5]
  body weight: reduced body weight
